Reference: PubChem BioAssay (NCI)
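Here, GI50 denotes the concentration required for 50% inhibition of growth. TGI: concentration producing complete growth inhibition.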

Tests used:
Test in all cases: inhibition of tumour cell growth, NCI panel, 384-well format
[1] = tested on: OVCAR-8 ovarian
[2] = tested on: HOP-62 NSCLC
[3] = tested on: UO-31 renal
[4] = tested on: 786-0 renal
[5] = tested on: EKVX NSCLC
[6] = tested on: SK-MEL-5 melanoma
[7] = tested on: HS 578T breast
[8] = tested on: COLO 205 colon
[9] = tested on: BT-549 breast
[10] = tested on: SR leukemia
[11] = tested on: HCC-2998 colon
[12] = tested on: NCI-H23 lung
[13] = tested on: HCT-15 colon
[14] = tested on: ACHN renal
[15] = tested on: DU-145 prostate
[16] = tested on: RPMI-8226 leukemia
[17] = tested on: CAKI-1 renal
[18] = tested on: OVCAR-5 ovarian
[19] = tested on: NCI/ADR-RES ovarian
[20] = tested on: CCRF-CEM leukemia
[21] = tested on: UACC-257 melanoma
[22] = tested on: SW-620 colon
[23] = tested on: U251 glioblastoma
[24] = tested on: NCI-H322M lung
[25] = tested on: NCI-H522 lung
[26] = tested on: M14 melanoma
[27] = tested on: SN12C renal
[28] = tested on: SK-MEL-2 melanoma
[29] = tested on: TK-10 renal
[30] = tested on: K-562 leukemia
[31] = tested on: HOP-92 NSCLC
[32] = tested on: MDA-MB-468 breast
[33] = tested on: LOX IMVI melanoma
[34] = tested on: MALME-3M melanoma
[35] = tested on: MOLT-4 leukemia
[36] = tested on: PC-3 prostate
[37] = tested on: KM12 colon
[38] = tested on: A498 renal
[39] = tested on: T-47D breast
[40] = tested on: NCI-H226 lung
[41] = tested on: SK-OV-3 ovarian
[42] = tested on: RXF 393 renal
[43] = tested on: A549 NSCLC
[44] = tested on: IGROV1 ovarian
[45] = tested on: UACC-62 melanoma
[46] = tested on: NCI-H460 NSCLC
[47] = tested on: HCT-116 colon
[48] = tested on: HT29 colon
[49] = tested on: HL-60(TB) leukemia
[50] = tested on: OVCAR-3 ovarian
[51] = tested on: MDA-MB-435 melanoma
[52] = tested on: SK-MEL-28 melanoma
[53] = tested on: OVCAR-4 ovarian
[54] = tested on: MCF7 breast
[55] = tested on: MDA-MB-231 breast
[56] = tested on: SF-268 CNS
[57] = tested on: SF-295 CNS
[58] = tested on: SNB-75 CNS
[59] = tested on: SF-539 CNS
[60] = tested on: SNB-19 CNS

With `CO[C@@]12[C@H](COC(N)=O)C3=C(C(=O)C(C)=C(N)C3=O)N1C[C@@H]1N[C@@H]12` the GI50 [1] was 439 nM, the TGI [1] was 4600 nM and the GI50 [2] was 38.7 nM. It also gave a TGI [2] of 213 nM, a GI50 [3] of 1130 nM and a TGI [3] of 4710 nM. For the same molecule, the GI50 [4] was 261 nM, the TGI [4] was 3690 nM and the GI50 [5] was 4520 nM. The TGI [5] was 11500 nM, the GI50 [6] was 40.5 nM and the TGI [6] was 102 nM. The GI50 [7] was 3260 nM, the TGI [7] was 7500 nM and the GI50 [8] was 250 nM. The TGI [8] was 1890 nM, the GI50 [9] was 258 nM and the TGI [9] was 1890 nM. The GI50 [10] was 13.5 nM, the TGI [10] was 28.1 nM and the GI50 [11] was 236 nM. The TGI [11] was 1380 nM, the GI50 [12] was 46 nM and the TGI [12] was 162 nM. It also gave a GI50 [13] of 328 nM, a TGI [13] of 2170 nM and a GI50 [14] of 169 nM. It also gave a TGI [14] of 844 nM, a GI50 [15] of 44.7 nM and a TGI [15] of 208 nM. The GI50 [16] was 161 nM, the TGI [16] was 675 nM and the GI50 [17] was 226 nM. It also gave a TGI [17] of 1640 nM, a GI50 [18] of 1120 nM and a TGI [18] of 4350 nM. The GI50 [19] was 5800 nM, the TGI [19] was over 43000 nM and the GI50 [20] was 108 nM. The TGI [20] was 257 nM, the GI50 [21] was 914 nM and the TGI [21] was 2950 nM. It also gave a GI50 [22] of 145 nM, a TGI [22] of 1850 nM and a GI50 [23] of 111 nM. It also gave a TGI [23] of 1500 nM, a GI50 [24] of 401 nM and a TGI [24] of 1450 nM. The GI50 [25] was 276 nM, the TGI [25] was 1370 nM and the GI50 [26] was 97.4 nM. The TGI [26] was 1190 nM, the GI50 [27] was 98.9 nM and the TGI [27] was 3160 nM. The GI50 [28] was 1250 nM, the TGI [28] was 2680 nM and the GI50 [29] was 1720 nM. The TGI [29] was 13100 nM, the GI50 [30] was 914 nM and the TGI [30] was 2830 nM. For the same molecule, the GI50 [31] was 1850 nM, the TGI [31] was 6780 nM and the GI50 [32] was 71.8 nM. It also gave a TGI [32] of 212 nM, a GI50 [33] of 159 nM and a TGI [33] of 1300 nM. For the same molecule, the GI50 [34] was 576 nM, the TGI [34] was 1960 nM and the GI50 [35] was 16.8 nM. For the same molecule, the TGI [35] was 31.1 nM, the GI50 [36] was 2340 nM and the TGI [36] was 9940 nM. The GI50 [37] was 582 nM, the TGI [37] was 3600 nM and the GI50 [38] was 179 nM. For the same molecule, the TGI [38] was 932 nM, the GI50 [39] was 1600 nM and the TGI [39] was 11200 nM. For the same molecule, the GI50 [40] was 553 nM, the TGI [40] was 3250 nM and the GI50 [41] was 137 nM. The TGI [41] was 770 nM, the GI50 [42] was 1600 nM and the TGI [42] was 3190 nM. It also gave a GI50 [43] of 92.9 nM, a TGI [43] of 1060 nM and a GI50 [44] of 1030 nM. For the same molecule, the TGI [44] was 2630 nM, the GI50 [45] was 100 nM and the TGI [45] was 1150 nM. The TGI [46] was 110 nM, the GI50 [47] was 82.3 nM and the TGI [47] was 1360 nM. It also gave a GI50 [48] of 368 nM, a TGI [48] of 2250 nM and a GI50 [49] of 17.8 nM. It also gave a TGI [49] of 41 nM, a GI50 [50] of 1320 nM and a TGI [50] of 3770 nM. For the same molecule, the GI50 [51] was 1710 nM, the TGI [51] was 8720 nM and the GI50 [52] was 1240 nM. It also gave a TGI [52] of 5210 nM, a GI50 [53] of 2270 nM and a TGI [53] of 5230 nM. For the same molecule, the GI50 [54] was 94.7 nM, the TGI [54] was 2870 nM and the GI50 [55] was 4010 nM. It also gave a TGI [55] of 10700 nM.
`CO[C@H]1/C=C/C[C@H](C)[C@@H](C)S(=O)(=O)NC(=O)c2ccc3c(c2)N(C[C@@H]2CC[C@H]21)C[C@@]1(CCCc2cc(Cl)ccc21)CO3` gave a GI50 [1] of 2810 nM, a TGI [1] of 7420 nM and a GI50 [2] of 2610 nM. The TGI [2] was 6270 nM, the GI50 [3] was 6300 nM and the TGI [3] was 18200 nM. The GI50 [4] was 4400 nM, the TGI [4] was 15800 nM and the GI50 [5] was 1980 nM. The TGI [5] was 7230 nM, the GI50 [6] was 1660 nM and the TGI [6] was 3070 nM. It also gave a GI50 [8] of 4060 nM, a TGI [8] of 11300 nM and a GI50 [9] of 1650 nM. For the same molecule, the TGI [9] was 3330 nM, the GI50 [10] was 28.7 nM and the TGI [10] was 173 nM. It also gave a GI50 [11] of 1620 nM, a TGI [11] of 3840 nM and a GI50 [12] of 758 nM. For the same molecule, the TGI [12] was 2200 nM, the GI50 [13] was 3390 nM and the TGI [13] was 10600 nM. The GI50 [14] was 4500 nM, the TGI [14] was 14700 nM and the GI50 [15] was 3870 nM. For the same molecule, the TGI [15] was 13100 nM, the GI50 [16] was 17.2 nM and the TGI [16] was 40.5 nM. It also gave a GI50 [17] of 11300 nM, a TGI [17] of 23500 nM and a GI50 [18] of 8160 nM. It also gave a TGI [18] of 20100 nM, a GI50 [19] of 1740 nM and a TGI [19] of 3640 nM. It also gave a GI50 [20] of 468 nM, a TGI [20] of 1110 nM and a GI50 [21] of 2950 nM. For the same molecule, the TGI [21] was 9810 nM, the GI50 [22] was 2120 nM and the TGI [22] was 4770 nM. The GI50 [23] was 3200 nM, the TGI [23] was 9920 nM and the GI50 [24] was 6300 nM. The TGI [24] was 18400 nM, the GI50 [25] was 950 nM and the TGI [25] was 2270 nM. For the same molecule, the GI50 [26] was 2070 nM, the TGI [26] was 4400 nM and the GI50 [27] was 2920 nM. It also gave a TGI [27] of 7990 nM, a GI50 [28] of 211 nM and a TGI [28] of 677 nM. The GI50 [29] was 4880 nM, the TGI [29] was 15700 nM and the GI50 [30] was 2000 nM. It also gave a TGI [30] of 5520 nM, a GI50 [31] of 2130 nM and a TGI [31] of 5710 nM. It also gave a GI50 [32] of 339 nM, a TGI [32] of 1070 nM and a GI50 [56] of 2450 nM. The TGI [56] was 7410 nM, the GI50 [33] was 2290 nM and the TGI [33] was 4180 nM. It also gave a GI50 [34] of 2830 nM, a TGI [34] of 7600 nM and a GI50 [35] of 263 nM. The TGI [35] was 794 nM, the GI50 [36] was 3930 nM and the TGI [36] was 14000 nM. It also gave a GI50 [37] of 3970 nM, a TGI [37] of 13500 nM and a GI50 [38] of 3290 nM. For the same molecule, the TGI [38] was 12500 nM, the GI50 [39] was 2790 nM and the TGI [39] was 11100 nM. It also gave a GI50 [40] of 3100 nM, a TGI [40] of 9050 nM and a GI50 [41] of 4240 nM. The TGI [41] was 13100 nM, the GI50 [42] was 689 nM and the TGI [42] was 2350 nM. The GI50 [43] was 3370 nM, the TGI [43] was 11100 nM and the GI50 [44] was 3710 nM. It also gave a TGI [44] of 13400 nM, a GI50 [45] of 284 nM and a TGI [45] of 762 nM. For the same molecule, the GI50 [46] was 1780 nM, the TGI [46] was 3440 nM and the GI50 [57] was 1800 nM. The TGI [57] was 3720 nM, the GI50 [47] was 2930 nM and the TGI [47] was 8980 nM. The GI50 [58] was 3600 nM, the TGI [58] was 9040 nM and the GI50 [59] was 1750 nM. It also gave a TGI [59] of 3420 nM, a GI50 [48] of 3590 nM and a TGI [48] of 12400 nM. It also gave a GI50 [49] of 21 nM, a TGI [49] of 42.3 nM and a GI50 [50] of 1710 nM. For the same molecule, the TGI [50] was 3220 nM, the GI50 [60] was 3810 nM and the TGI [60] was 11900 nM. The GI50 [51] was 1980 nM, the TGI [51] was 4870 nM and the GI50 [52] was 2670 nM. It also gave a TGI [52] of 6640 nM, a GI50 [53] of 1330 nM and a TGI [53] of 3390 nM. It also gave a GI50 [54] of 1310 nM, a TGI [54] of 4000 nM and a GI50 [55] of 3640 nM. For the same molecule, the TGI [55] was 9550 nM.
